Consider six compounds from patent publication US6753337B2, “Alkynyl containing hydroxamic acid compounds as matrix metalloproteinase/tace inhibitors” (Wyeth Holdings Corporation, priority 1999, dated 2004).

Test [1] addresses TNF-α converting enzyme (TACE) (Homo sapiens, UniProt P78536). The experiment in a line: Test procedure for measuring TACE inhibition (fluorescent peptidyl substrate). The class given is biochemical. The procedure, abridged: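 TACE (1 μg/mL final) preincubated 10 min at room temperature with 1 μM compound in 10 mM Tris pH 7.4, 10% glycerol, DMSO <1%. Treated rates tested against control by Dunnett's test (p<0.05).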

The next test concerns THP-1 cells. The experiment in a line: Human monocytic THP-1 cell differentiation assay for soluble proteins (THP-1 soluble protein assay). It is filed as cell-based. The note with it: LPS-stimulated THP-1 cells, soluble protein not given.

SMILES strings stand for the structures.

Sequence of TNF-α converting enzyme (TACE) (P78536 215-824): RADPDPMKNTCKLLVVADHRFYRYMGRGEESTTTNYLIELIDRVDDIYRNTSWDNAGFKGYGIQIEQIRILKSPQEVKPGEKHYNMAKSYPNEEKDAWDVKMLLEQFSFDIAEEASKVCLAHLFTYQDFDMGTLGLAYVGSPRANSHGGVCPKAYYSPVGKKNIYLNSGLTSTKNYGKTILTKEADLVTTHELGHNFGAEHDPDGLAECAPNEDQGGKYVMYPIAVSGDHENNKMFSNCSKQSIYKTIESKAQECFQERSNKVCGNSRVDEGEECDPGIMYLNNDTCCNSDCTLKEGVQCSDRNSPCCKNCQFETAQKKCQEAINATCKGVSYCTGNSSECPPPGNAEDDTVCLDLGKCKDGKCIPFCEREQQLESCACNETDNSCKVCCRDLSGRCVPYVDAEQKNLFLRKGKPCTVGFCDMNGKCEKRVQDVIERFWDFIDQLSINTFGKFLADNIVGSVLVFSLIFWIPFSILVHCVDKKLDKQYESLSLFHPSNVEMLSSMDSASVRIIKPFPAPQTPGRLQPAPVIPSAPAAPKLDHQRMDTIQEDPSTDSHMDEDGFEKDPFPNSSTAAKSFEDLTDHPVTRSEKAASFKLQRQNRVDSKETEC

On to `CC#CCOc1ccc(S(=O)(=O)CC2(C(=O)NO)CCN(C(=O)C(C)(CO)CO)CC2)cc1` [Example 43, 4-({[4-(2-Butynyloxy)phenyl]sulfonyl}methyl)-N-hydroxy-1-[3-hydroxy-2-(hydroxymethyl)-2-methylpropanoyl]-4-piperidinecarboxamide], for which the IC50 in test [1] turned out to be 13 nM. In addition, in the test on THP-1 cells, the inhibition at 3 µM came to 66%.
`CC#CCOc1ccc(S(=O)(=O)C2(C(=O)NO)CCN(Cc3ccc(Cl)cc3)CC2)cc1` [Example 3, 4-(4-But-2-ynyloxy-benzenesulfonyl)-1-(4-chloro-benzyl)-piperdine-4-carboxylic acid hydroxyamide] yielded a 50% inhibitory concentration (IC50) in test [1] of 55 nM. The inhibition at 3 µM in the test on THP-1 cells came out at 34%.
With `CC#CCOc1ccc([S+]([O-])C2(C(=O)NO)CCN(C(=O)OC(C)(C)C)CC2)cc1` (stereo not drawn) [Example 80, tert-butyl 4-{[4-(but-2-ynyloxy)phenyl]sulfinyl}-4-[(hydroxyamino)carbonyl]piperidine-1-carboxalate], it took 90 nM to reach half-maximal inhibition in test [1] (IC50). The inhibition at 3 µM in the test with THP-1 cells was -7%.
Turning to `CC#CCOc1ccc(S(=O)(=O)CC2(C(=O)NO)CCN(C(=N)N)CC2)cc1` [Example 44], in test [1], the midpoint of inhibition, the IC50, lay at 56 nM. For the same compound, the inhibition at 3 µM with THP-1 cells was 49%.
In the same order, the values of `CC#CCOc1ccc([S+]([O-])CC2(C(=O)NO)CCNCC2)cc1` (stereo not drawn) [Example 33, 4-[[[4-(2-Butynyloxy)phenyl]sulfinyl]methyl]-N-hydroxy-4-piperidinecarboxamide] are 327 nM and 8%.
In turn, `CC#CCOc1ccc(S(=O)(=O)C2(C(=O)NO)CCN(Cc3ccc(C#N)cc3)CC2)cc1` [Example 8, 4-(4-But-2-ynyloxy-benzenesulfonyl)-1-(4-cyano-benzyl)-piperidine-4-carboxylic acid hydroxyamide] showed an IC50 in test [1] of 195 nM. Moreover, the inhibition at 3 µM in the test on THP-1 cells stood at 21%.
